Key:
human mGlu5a receptor [1] = target: T1, human mGlu5a receptor (Homo sapiens (Human), UniProt P41594); assay: MPEP binding assay; details: [3H]MPEP 2 nM, 1 h at 4° C., EBNA cell membranes
Protocol: For binding experiments, cDNA encoding human mGlu 5a receptor was transiently transfected into EBNA cells using a procedure described by Schlaeger and Christensen [Cytotechnology 15:1-13 (1998)]. Cell membrane homogenates were stored at −80° C. until the day of assay where upon they were thawed and resuspended and polytronised in 15 mM Tris-HCl, 120 mM NaCl, 100 mM KCl, 25 mM CaCl2, 25 mM MgCl2 binding buffer at pH 7.4 to a final assay concentration of 20 μg protein/well.
Saturation isotherms were determined by addition of twelve [^3H]MPEP concentrations (0.04-100 nM) to these membranes (in a total volume of 200 μl) for 1 h at 4° C. Competition experiments were performed with a fixed concentration of [^3H]MPEP (2 nM) and IC50 values of test compounds evaluated using 11 concentrations (0.3-10,000 nM). Incubations were performed for 1 h at 4° C.
At the end of the incubation, membranes were filtered onto unifilter (96-well white microplate with bonded GF/C filter preincubated 1 h in 0.1% PEI in wash buffer, Packard BioScience, Meriden, Conn.) with a Filtermate 96 harvester (Packard BioScience) and washed 3 times with cold 50 mM Tris-HCl, pH 7.4 buffer. Nonspecific binding was measured in the presence of 10 μM MPEP. The radioactivity on the filter was counted (3 min) on a Packard Top-count microplate scintillation counter with quenching correction after addition of 45 μl of microscint 40 (Canberra Packard S. A., Zürich, Switzerland) and shaking for 20 min.

human mGlu5a receptor [2] = target: T1, human mGlu5a receptor; assay: Intracellular Ca2+ mobilization assay (mGlu5 PAM assay); assay type: cell-based; details: for EC50 (nM) mGlu5 PAM assay / mGlu5 PAM EC50 [nM]: HEK-293 cells with human mGlu5a, L-glutamate at EC20; for Activity profile: PAM = positive allosteric modulator, NAM = negative allosteric modulator; for Efficacy [%]: maximal response in % of maximal stimulatory effect of saturating L-glutamate
Protocol: A monoclonal HEK-293 cell line stably transfected with a cDNA encoding for the human mGlu5a receptor was generated; for the work with mGlu5 Positive Allosteric Modulators (PAMs), a cell line with low receptor expression levels and low constitutive receptor activity was selected to allow the differentiation of agonistic versus PAM activity. Cells were cultured according to standard protocols (Freshney, 2000) in Dulbecco's Modified Eagle Medium with high glucose supplemented with 1 mM glutamine, 10% (vol/vol) heat-inactivated bovine calf serum, Penicillin/Streptomycin, 50 μg/ml hygromycin and 15 μg/ml blasticidin (all cell culture reagents and antibiotics from Invitrogen, Basel, Switzerland).
About 24 hrs before an experiment, 5×10^4 cells/well were seeded in poly-D-lysine coated, black/clear-bottomed 96-well plates. The cells were loaded with 2.5 μM Fluo-4AM in loading buffer (1×HBSS, 20 mM HEPES) for 1 hr at 37° C. and washed five times with loading buffer. The cells were transferred into a Functional Drug Screening System 7000 (Hamamatsu, Paris, France), and 11 half logarithmic serial dilutions of test compound at 37° C. were added and the cells were incubated for 10-30 min. with on-line recording of fluorescence. Following this pre-incubation step, the agonist L-glutamate was added to the cells at a concentration corresponding to EC20 (typically around 80 μM) with on-line recording of fluorescence; in order to account for day-to-day variations in the responsiveness of cells, the EC20 of glutamate was determined immediately ahead of each experiment by recording of a full dose-response curve of glutamate.
Responses were measured as peak increase in fluorescence minus basal (i.e. fluorescence without addition of L-glutamate), normalized to the maximal stimulatory effect obtained with saturating concentrations of L-glutamate. Graphs were plotted with the % maximal stimulatory using XLfit, a curve fitting program that iteratively plots the data using Levenburg Marquardt algorithm. The single site competition analysis equation used was y=A+((B−A)/(1+((x/C)D))), where y is the % maximal stimulatory effect, A is the minimum y, B is the maximum y, C is the EC50, x is the log 10 of the concentration of the competing compound and D is the slope of the curve (the Hill Coefficient). From these curves the EC50 (concentration at which half maximal stimulation was achieved), the Hill coefficient as well as the maximal response in % of the maximal stimulatory effect obtained with saturating concentrations of L-glutamate were calculated.
A depression of the signal observed after addition of the EC20 concentration of L-glutamate was indicative of an inhibitory activity of the test compound.

T1 sequence (P41594 other isoform, or with tags, fused parts or gaps): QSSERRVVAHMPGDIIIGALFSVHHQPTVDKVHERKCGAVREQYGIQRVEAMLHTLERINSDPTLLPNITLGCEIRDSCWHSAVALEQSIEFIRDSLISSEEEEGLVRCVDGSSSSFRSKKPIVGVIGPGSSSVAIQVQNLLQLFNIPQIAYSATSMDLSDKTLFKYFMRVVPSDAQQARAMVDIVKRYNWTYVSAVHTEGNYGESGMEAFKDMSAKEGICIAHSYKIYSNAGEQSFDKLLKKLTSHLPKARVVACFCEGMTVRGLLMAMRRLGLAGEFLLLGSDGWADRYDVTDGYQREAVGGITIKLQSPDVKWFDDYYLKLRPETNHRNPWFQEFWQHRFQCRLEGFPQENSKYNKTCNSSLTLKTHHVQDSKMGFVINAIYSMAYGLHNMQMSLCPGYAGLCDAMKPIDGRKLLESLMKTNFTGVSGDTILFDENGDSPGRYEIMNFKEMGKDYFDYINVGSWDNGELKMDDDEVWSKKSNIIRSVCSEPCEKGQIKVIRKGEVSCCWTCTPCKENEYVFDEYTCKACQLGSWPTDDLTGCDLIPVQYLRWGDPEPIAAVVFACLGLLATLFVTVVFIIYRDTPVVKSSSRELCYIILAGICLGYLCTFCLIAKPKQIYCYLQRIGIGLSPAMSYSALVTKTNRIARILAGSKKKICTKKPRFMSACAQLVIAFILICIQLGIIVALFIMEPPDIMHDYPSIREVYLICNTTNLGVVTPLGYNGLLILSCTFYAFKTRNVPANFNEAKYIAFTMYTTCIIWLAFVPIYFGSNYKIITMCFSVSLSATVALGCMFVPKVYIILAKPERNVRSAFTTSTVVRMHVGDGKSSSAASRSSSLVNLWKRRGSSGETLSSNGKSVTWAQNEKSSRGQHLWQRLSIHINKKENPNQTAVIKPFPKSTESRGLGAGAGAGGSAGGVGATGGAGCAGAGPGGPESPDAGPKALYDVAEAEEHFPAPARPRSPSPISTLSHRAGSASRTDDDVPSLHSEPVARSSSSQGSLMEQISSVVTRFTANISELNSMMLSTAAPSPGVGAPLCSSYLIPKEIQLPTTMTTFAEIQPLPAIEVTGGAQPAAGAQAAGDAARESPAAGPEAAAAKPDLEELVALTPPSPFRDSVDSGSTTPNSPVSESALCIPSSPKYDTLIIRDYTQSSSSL

| Structure (SMILES) | Ki (human mGlu5a receptor [1]) | EC50 (nM) mGlu5 PAM assay (human mGlu5a receptor [2]) | Activity profile (human mGlu5a receptor [2]) | mGlu5 PAM EC50 [nM] (human mGlu5a receptor [2]) | further results |
| --- | --- | --- | --- | --- | --- |
| CC1(C)COCCN1C(=O)c1ccc(C#Cc2cccc(F)c2)cn1 [Example 1, (3,3-Dimethyl-morpholin-4-yl)-[5-(3-fluoro-phenylethynyl)-pyridin-2-yl]-methanone] | 72 nM | inactive | NAM |  |  |
| O=C(c1ccc(C#Cc2cccc(Cl)c2)cn1)N1CCOCC1 [Example 2, [5-(3-Chloro-phenylethynyl)-pyridin-2-yl-morpholin-4-yl]-methanone] |  | inactive |  |  |  |
| CC1(C)COCCN1C(=O)c1ccc(C#Cc2cccc(Cl)c2)cn1 [Example 3, (3,3-Dimethyl-morpholin-4-yl)-[5-(3-chloro-phenylethynyl)-pyridin-2-yl]-methanone] | 23 nM | inactive | NAM |  |  |
| CC1(C)COCCN1C(=O)c1ncc(C#Cc2cccc(Cl)c2)cn1 [Example 4, (3,3-Dimethyl-morpholin-4-yl)-[5-(3-chloro-phenylethynyl)-pyrimidin-2-yl]-methanone] | 67 nM | inactive | NAM |  |  |
| CC1(C)CN(C(=O)c2ccc(C#Cc3cccc(F)c3)cn2)CCO1 [Ref. 1 Ex. 35, reference compound] | 201 nM |  | PAM |  |  |
| CC1(C)CCCN(C(=O)c2ncc(C#Cc3ccccc3)cn2)C1 [Ref. 1 Ex. 46, reference compound] | 315 nM |  | PAM |  |  |
| CC1(C)CN(C(=O)c2ccc(C#Cc3cccc(F)c3)cn2)CCO1 [drawing 3] |  |  |  |  | Efficacy [%] (human mGlu5a receptor [2]): 57% |
| CC1(C)CCCN(C(=O)c2ncc(C#Cc3ccccc3)cn2)C1 [drawing 4] |  |  |  |  | Efficacy [%] (human mGlu5a receptor [2]): 59% |
| CC1(C)COCCN1C(=O)c1ccc(C#Cc2cccc(F)c2)cn1 [drawing 5] |  |  |  | inactive |  |
| O=C(c1ccc(C#Cc2cccc(Cl)c2)cn1)N1CCOCC1 [drawing 6] |  |  |  | inactive |  |
| CC1(C)COCCN1C(=O)c1ccc(C#Cc2cccc(Cl)c2)cn1 [drawing 7] |  |  |  | inactive |  |
| CC1(C)COCCN1C(=O)c1ncc(C#Cc2cccc(Cl)c2)cn1 [drawing 8] |  |  |  | inactive |  |

Source: patent publication US9227959B2, “Ethynyl derivatives” (Hoffmann-La Roche Inc., priority 2012, dated 2016)
